From patent US9578880B2, “Acetyl co-enzyme A carboxylase herbicide resistant plants” (Colorado Wheat Research Foundation, Inc., priority 2011, dated 2017)

Key:
[1] = tested on: non-mutant Hatcher winter wheat (Accession 0); test: Cross-resistance study, plant survival after other ACCase herbicides (non-mutant check); assay type: in vivo, Triticum aestivum L.; conditions: Accession 0 (non-mutant check); clethodim 65, sethoxydim 264, fluazifop 361 g ai ha^-1, clethodim + 10.5 g ai ha^-1 quizalofop; 28 DAT
Procedure: (§1) A cross-resistance study was conducted within the ACCase herbicide mode of action using herbicides normally lethal to wheat. Clethodim, sethoxydim, and fluazifop were used at rates of 65, 264, and 361 g ai ha^−1, plus a treatment of clethodim and 10.5 g ai ha^−1 quizalofop. Seven DAT the tops of plants were cut off above the newest above-ground growing point. Binomial evaluation of plant survival was performed 28 DAT. Tolerance of quizalofop mutants to clethodim and sethoxydim was low (Table 1). The presence of any cross tolerance presents evidence that combining multiple homologous resistant ACCase genes into a single plant could lead to resistance to additional herbicides. At this stage only a third of the total ACCase in the plant would have a mutation and contain tolerance to ACCase inhibitors if the mutation is target-site-based.

[2] = tested on: quizalofop tolerant mutant wheat accessions; test: Cross-resistance study, plant survival after other ACCase herbicides (quizalofop tolerant mutants); assay type: in vivo, Triticum aestivum L.; conditions: 28 DAT
Procedure: as §1

[3] = tested on: ACCase, A genome nucleotide substitution (Ala2004Val); test: In-vitro ACCase enzyme assay; assay type: biochemical, Triticum aestivum L.
Procedure: (§2) An in-vitro enzyme assay was conducted to observe ACCase in conjunction with quizalofop directly to determine if the presence of ACCase mutations decreases the ability of herbicides to inhibit ACCase activity. Four quizalofop concentrations of 0.1, 1, 10, and 100 μM were included in the assay along with a non-treated control. The experiment included four accessions which included a representative from the three mutations detected and non-mutagenized wheat. […] Calculated at the I25 level, the resistant to susceptible value for the A genome was 4.57, the B genome was 3.57 and the D genome was 10.86.

[4] = tested on: ACCase of non-mutagenized Hatcher winter wheat; test: In-vitro ACCase enzyme assay; assay type: biochemical, Triticum aestivum L.; conditions: 0.1, 1, 10, 100 μM
Procedure: as §2

[5] = tested on: ACCase, B genome nucleotide substitution (Ala2004Val); test: In-vitro ACCase enzyme assay; assay type: biochemical, Triticum aestivum L.
Procedure: as §2

[6] = tested on: ACCase, D genome nucleotide substitution (Ala2004Val); test: In-vitro ACCase enzyme assay; assay type: biochemical, Triticum aestivum L.; conditions: for ACCase tolerance compared with background: D genome substitution
Procedure: as §2

[7] = tested on: quizalofop-tolerant wheat accessions vs non-mutant Hatcher wheat; test: Visual evaluation of injury to quizalofop; assay type: in vivo, Triticum aestivum L.; conditions: 21.05 g ai ha^-1; 28 DAT; nearly all of 18 quizalofop-tolerant accessions
Procedure: 18 quizalofop-tolerant accessions were treated with 21.05 g ai ha^−1 quizalofop, a discriminating dose based on previous studies. Plants were evaluated 28 days after treatment (DAT) for visible injury to quizalofop on a scale of 0 to 100%, with 0 being no injury and 100 being complete desiccation. Nearly all accessions evaluated in this study appeared more tolerant to quizalofop than non-mutant Hatcher wheat (FIG. 5). The accessions contained few completely dead plants, with the exception of the one accession not different than the background.

[8] = Accession 1, clethodim 65, sethoxydim 264, fluazifop 361 g ai ha^-1, clethodim + 10.5 g ai ha^-1 quizalofop

Row | Structure (SMILES) | survival after application of ACCase herbicide [1] [%] | survival after application of ACCase herbicide [2, 8] [%] | survival after application of ACCase herbicide ([2]; Accession 2, same rates) [%] | survival after application of ACCase herbicide ([2]; Accession 3, same rates) [%] | survival after application of ACCase herbicide ([2]; Accession 4, same rates) [%] | survival after application of ACCase herbicide ([2]; Accession 5, same rates) [%] | survival after application of ACCase herbicide ([2]; Accession 6, same rates) [%] | survival after application of ACCase herbicide ([2]; Accession 7, same rates) [%] | survival after application of ACCase herbicide ([2]; Accession 8, same rates) [%] | survival after application of ACCase herbicide ([2]; Accession 9, same rates) [%] | survival after application of ACCase herbicide ([2]; Accession 10, same rates) [%] | survival after application of ACCase herbicide ([2]; Accession 11, same rates) [%] | survival after application of ACCase herbicide ([2]; Accession 12, same rates) [%] | survival after application of ACCase herbicide ([2]; Accession 13, same rates) [%] | survival after application of ACCase herbicide ([2]; Accession 14, same rates) [%] | survival after application of ACCase herbicide ([2]; Accession 15, same rates) [%] | survival after application of ACCase herbicide ([2]; Accession 16, same rates) [%] | survival after application of ACCase herbicide ([2]; Accession 17, same rates) [%] | other results
1 | CCSC(C)CC1CC(=O)C(/C(CC)=N/OC/C=C/Cl)=C(O)C1 (stereo not shown) [Clethodim, clethodim] | 0 | 10 | 0 | 0 | 0 | 0 | 0 | 0 | 25 | 17 | 0 | 0 | 17 | 0 | 0 | 0 | 0 | 0 | –
2 | CC(Oc1ccc(Oc2ccc(C(F)(F)F)cn2)cc1)C(=O)O (stereo not shown) [Fluazifop, fluazifop] | 0 | 0 | 0 | 0 | 0 | 0 | 0 | 0 | 0 | 0 | 0 | 0 | 0 | 0 | 0 | 0 | 0 | 0 | –
3 | CCC/C(=N\OCC)C1=C(O)CC(CC(C)SCC)CC1=O (stereo not shown) [Sethoxydim, sethoxydim] | 0 | 0 | 0 | 0 | 0 | 0 | 0 | 0 | 0 | 0 | 0 | 8 | 8 | 0 | 0 | 0 | 0 | 0 | Tolerance of quizalofop mutants (cross-resistance) ([2]; clethodim 65, sethoxydim 264 g ai ha^-1): low
4 | CC(Oc1ccc(Oc2cnc3cc(Cl)ccc3n2)cc1)C(=O)O (stereo not shown) [quizalofop] | – | – | – | – | – | – | – | – | – | – | – | – | – | – | – | – | – | – | ACCase tolerance compared with background ([3]; 100 μM, A genome substitution): higher than background tolerance; resistant to susceptible value calculated at the I25 level ([3]; A genome mutant vs non-mutagenized wheat): 4.57; sensitivity of ACCase compared with the mutant accessions [4]: greater sensitivity; ACCase tolerance compared with background ([5]; 10 μM, B genome substitution): higher than background levels of tolerance; resistant to susceptible value calculated at the I25 level ([5]; B genome mutant vs non-mutagenized wheat): 3.57; ACCase tolerance compared with background ([6]; 10 μM): higher than background levels of tolerance; ACCase tolerance compared with background ([6]; 100 μM): higher than background tolerance; resistant to susceptible value calculated at the I25 level ([6]; D genome mutant vs non-mutagenized wheat): 10.86; visible injury, tolerance of accessions compared with non-mutant Hatcher wheat [7]: more tolerant
